≈ marks a conversion by molar mass, not a printed value. Marks after values point to notes of the source that are not given here.
Experiments:
[1] = test system: colon carcinoma cell line (HCT-116); assay: Neutral red cytotoxicity assay, HCT-116; assay type: cell-based; conditions: Homo sapiens, isolated compounds, 72 h, mean ± SD of three replicates, read-out: IC50 (μg/mL) HCT-116
Method: The human cancer cells KB, Ca Ski, MCF-7, HCT-116, A549, and noncancer human cell lines (MRC-5) were purchased from the American Tissue Culture Collection (ATCC, USA). The supplemented RPMI 1640 media and eagle minimum essential medium (EMEM) were purchased from Sigma-Aldrich, USA. The supplements or antibiotics such as foetal bovine serum (FBS), penicillin/streptomycin (P/S) (100 μg/mL), amphotericin B (50 μg/mL), and accutase were purchased from PAA Laboratories, Austria. Sodium pyruvate (11 mg/mL) purchased from Sigma-Aldrich, USA. The cells were cultured in a SHEL LAB water-jacketed CO2 incubator with […] tissue culture flasks (Nunc, Denmark), which was observed routinely under inverted microscope (Leica DMI3000 B, Germany) for any contamination and seeded into 96-well flat bottom microtiter plate (Nunc, Denmark). The extract or pure compounds was dissolved in dimethyl sulfoxide (DMSO, Molecular Biology Grade, >99.9%) from Sigma-Aldrich, USA. Microtiter plate incubator shaker (LT Biomax 500) was used and absorbance was measured at 540 nm using an ELISA microplate reader (EMax microplate reader of Molecular Devices, USA). MCF-7 and Ca Ski were cultured in RPMI 1640 media supplemented with 10% v/v FBS, P/S, and amphotericin B and MRC-5 in EMEM media with 10% v/v FBS, P/S, amphotericin B, and sodium pyruvate. The cells were cultured in tissue culture flask in 5% CO2 incubator kept at 37°C in a humidified atmosphere and observed routinely under inverted microscope from any contaminations. Each fresh medium was replaced every 2 or 3 days until cell confluence was achieved and the cells were detached by using accutase.
The in vitro cytotoxicity activity was performed using the neutral red cytotoxicity assay based on the initial protocol as described earlier with some modifications. Briefly, cells were detached from the tissue culture flask with 1.0 mL solution of accutase and PBS solution. The cell pellet was obtained by centrifugation at 1,000 rpm for 5 minutes. The density of the viable cells was counted by 0.4% of trypan blue exclusion in a haemocytometer. Cells were then plated in 96-well microtiter plate (Nunc), at a concentration of 1 × 10^4 cells/well and incubated in a CO2 incubator at 37°C to allow the cells to adhere. After 24 h, the cells were treated with six different concentrations, that is, 1, 10, 25, 50, 75, and 100 μg/mL of each tested agent in three replicates. The plates were incubated for 72 h at 37°C in a 5% CO2 incubator. The untreated cells were regarded as a negative control, whilst cells incubated only with DMSO (0.5%, v/v) were used as a vehicle control. No effect due to the DMSO was observed. Doxorubicin was used as the positive control. After 72 h, the old medium was substituted with fresh medium containing 50 μg/mL neutral red. The 96-well plates were placed into incubator for 3 h. This is to allow the uptake of the vital dye into the lysosomes of viable and undamaged cells. Then, the media was discarded and cells were washed with 200 μL of neutral red washing solution. The dye was eluted from the cells by adding neutral red resorb solution (200 μL). The plate was further incubated for 30 min with rapid agitation on a microtiter plate shaker. The optical density (OD) of the eluted dye was read at 540 nm using a microplate reader. The experiments were conducted in triplicates. […] Cytotoxicity of each test agent is expressed as IC50 value. […]

Ca Ski cells = assay: Hoechst 33342/PI dual staining, quantification of apoptotic/necrotic cells, Ca Ski; assay type: cell-based, human; conditions: 48 h
Method: (§1) Briefly, cells were grown on tissue culture dishes and treated with or without tested compounds at concentrations of 12.5, 25, 40, and 50 μg/mL. After 48 hours, the cells were harvested and washed with cold PBS to a density of 5 × 10^5 cells/mL. The cells were suspended in Hoechst 33342 solution (10 μg/mL) and were incubated at 37°C in CO2 for 7 minutes. After incubation with Hoechst 33342, the cells were counter stained with propidium iodide (2.5 μg/mL). The samples were maintained in the dark for 15 minutes. After staining, an aliquot of cell suspension was placed on a glass microscope slides. The slides were observed immediately under inverted fluorescence microscope (DM16000B, Germany) using UV/488 dual excitation and the fluorescence was measured at ~460 nm emission of Hoechst 33342 dye and >575 nm emission of propidium iodide at 630x magnification. At least 200 total target cells were counted and the numbers of each four cellular states were recorded and analyzed using fluorescence microscopy for quantification of apoptosis and necrosis. The experiment was conducted in triplicates. The percentages of apoptotic and necrotic cells were determined according to the following formula [27]: (1) Percentage of Apoptotic Cells (%) =(LA+DA)/ LN+LA+DN+DA×100,Percentage of Necrotic Cells (%) = DN/LN+LA+DN+DA×100, where LN are live target cells with normal nuclei (Hoechst 33342/PI: blue chromatin with organized structure), LA are live cells with apoptotic nuclei (Hoechst 33342/PI: bright blue chromatin that is highly condensed or fragmented), DN are dead cells with normal nuclei (Hoechst 33342/PI: pink chromatin with organized structure), and DA are dead cells with apoptotic nuclei (Hoechst 33342/PI: bright pink chromatin that is, highly condensed or fragmented).

HCT-116 cells = assay: Hoechst 33342/PI dual staining, quantification of apoptotic/necrotic cells, HCT-116; assay type: cell-based, human; conditions: 48 h
Method: as §1

[2] = test system: active caspase-3 in HCT-116 cells; assay: Flow cytometric active caspase-3 assay, HCT-116; assay type: cell-based, human
Method: Caspases are key mediators of cell death. Caspase-3 activity assay was performed using FITC Active Caspase-3 Apoptosis Kit (BD Pharmingen). These probes bind covalently and irreversibly to the active site of the active caspase heterodimer emitting the green fluorescent signal detected by the FL-1 channel. Briefly, the cancer cells were treated with curzerenone (25, 40, and 50 μg/mL) and alismol (12.5, 25, and 40 μg/mL) for 48 h. The assay was performed based on the manufacturer's protocol. Cells were analyzed using BD Accuri C6 flow cytometry and BD CFlow software.

SMILES | IC50 [1] [µg/mL] | Percentage of apoptotic cells (%) (Ca Ski cells; 12.5 μg/mL) | Percentage of necrotic cells (%) (Ca Ski cells; 12.5 μg/mL) | Percentage of apoptotic cells (%) (Ca Ski cells; 25 μg/mL) | Percentage of necrotic cells (%) (Ca Ski cells; 25 μg/mL) | Percentage of apoptotic cells (%) (Ca Ski cells; 40 μg/mL) | Percentage of necrotic cells (%) (Ca Ski cells; 40 μg/mL) | Percentage of apoptotic cells (%) (Ca Ski cells; 50 μg/mL) | Percentage of necrotic cells (%) (Ca Ski cells; 50 μg/mL) | Percentage of apoptotic cells (%) (HCT-116 cells; HCT-116, 12.5 μg/mL) | Percentage of necrotic cells (%) (HCT-116 cells; HCT-116, 12.5 μg/mL) | Percentage of apoptotic cells (%) (HCT-116 cells; HCT-116, 25 μg/mL) | Percentage of necrotic cells (%) (HCT-116 cells; HCT-116, 25 μg/mL) | Percentage of apoptotic cells (%) (HCT-116 cells; HCT-116, 40 μg/mL) | Percentage of necrotic cells (%) (HCT-116 cells; HCT-116, 40 μg/mL) | Percentage of apoptotic cells (%) (HCT-116 cells; HCT-116, 50 μg/mL) | Percentage of necrotic cells (%) (HCT-116 cells; HCT-116, 50 μg/mL) | other results
C=C1CCC(C(C)C)=CC2C1CC[C@@]2(C)O (stereo partly drawn) [Alismol, alismol] | 9 ± 0.9 (≈ 40.8 µM) | 8.83 ± 0.58^a % | 5.83 ± 1.50^a % | 53.67 ± 1.76^d % | 14.00 ± 3.50^b % | 41.67 ± 0.76^c % | 45.33 ± 0.60^c % | 32.67 ± 1.04^b % | 60.33 ± 1.00^d % | 48.83 ± 1.61^b % | 19.50 ± 1.00^a % | 55.33 ± 3.01^b % | 26.00 ± 1.30^b % | 21.33 ± 2.02^a % | 67.67 ± 2.60^c % | 19.00 ± 0.87^a % | 76.67 ± 0.80^d % | Percentage of apoptotic cells (%) (Ca Ski cells; 25 μg/mL, listed as alismol): 53.7 ± 1.8%; Percentage of necrotic cells (%) (Ca Ski cells; 50 μg/mL, listed as alismol): 60.3 ± 1.0%; Percentage of apoptotic cells (%) (HCT-116 cells; HCT-116, 25 μg/mL, listed as alismol): 55.3 ± 3.0%; Percentage of necrotic cells (%) (HCT-116 cells; HCT-116, 50 μg/mL, listed as alismol): 76.7 ± 0.8%; highest increment of caspase-3 activity ([2]; HCT-116, 40 μg/mL, 48 h): 45 folds
C=CC1(C)Cc2occ(C)c2C(=O)C1C(=C)C (stereo not drawn) [Curzerenone, curzerenone] | 53 ± 1.5 (≈ 230 µM) | 4.82 ± 0.59^a % | 3.50 ± 1.30^a % | 7.89 ± 1.77^b % | 5.57 ± 1.10^b % | 39.67 ± 1.89^c % | 11.83 ± 2.10^c % | 54.67 ± 1.76^d % | 16.33 ± 1.0^d % | 45.00 ± 0.5^a % | 9.00 ± 1.50^a % | 50.00 ± 0.5^b % | 15.33 ± 0.80^b % | 46.5 ± 1.44^a % | 25.00 ± 0.50^c % | 49.17 ± 1.4^b % | 28.00 ± 0.50^d % | Percentage of apoptotic cells (%) (Ca Ski cells; 50 μg/mL, listed as curzerenone): 54.7 ± 1.8%; Percentage of apoptotic cells (%) (HCT-116 cells; HCT-116, 25 μg/mL, listed as curzerenone): 50.0 ± 0.5%; highest increment in caspase-3 activity compared to untreated cells ([2]; HCT-116, 48 h, concentration not given): 100 folds

From article PMC3671673, “In Vitro Morphological Assessment of Apoptosis Induced by Antiproliferative Constituents from the Rhizomes of Curcuma zedoaria” (Evidence-based Complementary and Alternative Medicine : eCAM, 2013)
